What was measured:
D-aminoacylase [1] = assay: Effects of various metal salts and reagents on residual enzyme activity; format: biochemical, Hypomyces mycophilus IFO 6785; details: for Relative activity (%): pH 9.5; for effect on the enzyme (in words): summary of Tables 6 and 7
[2] = test system: D-aminoacylase (crude enzyme) of Menisporopsis novaezelandiae IFO 9179; assay: Crude enzyme activity for each N-Ac-D-amino acid substrate; format: biochemical; details: Menisporopsis novaezelandiae IFO 9179 crude enzyme; 20 mM substrate, 1 mM CoCl2, 50 mM phosphate buffer pH 7.0
Description: (§1) Auricularia auriculajudae IFO 5949, Pythium aphanidermaatum IFO 7030, and Menisporopsis novaezelandiae IFO 9179 were each inoculated into sterilized media (100 ml each) (Czapek Dox Broth for IFO 5949, YM1 medium for IFO 7030, and POTATO DEXTROSE BROTH for IFO 9179) in 500-ml Erlenmeyer flasks. The fungi were cultured on a rotary shaker at 210 rpm at 24° C. for 7 days and collected by centrifugation using a […] centrifuge with a RPR10-2 rotor at 8,000 rpm (12,500×g) for 20 min. […] Disrupted cells thus obtained were centrifuged using a […] centrifuge with a RPR20-2 rotor at 17,500 rpm (38,000×g) for 30 min at 4° C. to obtain the supernatant as the crude enzyme. […] Figures in the table denote the amount (mM) of D-amino acids produced from the corresponding N-acetyl-D-amino acids. The D-aminoacylase activity was detected in all the strains tested, producing D-amino acid from the corresponding N-acetyl-D-amino acid.

[3] = test system: D-aminoacylase (crude enzyme) of Auricularia auriculajudae IFO 5949; assay: as above; format: biochemical; details: Auricularia auriculajudae IFO 5949 crude enzyme; 20 mM substrate, 1 mM CoCl2, 50 mM phosphate buffer pH 7.0
Description: as §1

D-aminoacylase [4] = assay: Substrate specificity of purified D-aminoacylase (TNBS method); format: biochemical, Hypomyces mycophilus IFO 6785; details: for percentage of the specific activity compared with that for N-acetyl-D-methionine taken as 100%, D-enantiomer / percentage of the specific activity compared with that for N-acetyl-D-methionine taken as 100%, L-enantiomer: 20 mM substrate, 50 mM Tris-HCl pH 7.5, 30° C., 20 min; for activity of the enzyme for the substrate (in words): summary of Table 5
Description: The enzyme activity was assayed by determining the amount of amino acid produced using the TNBS method and the HPLC method. In the TMBS method, 100 mM Na2B4O7 (0.5 ml) was added to a sample solution containing amino acid (0.5 ml), 20 μl of 110 mM TNBS (trinitrobenzenesulfonic acid) was then added, and the resulting mixture was quickly stirred. After 5 min, 100 mM NaH2PO4 containing 1.5 mM Na2SO3 (2 ml) was added to the reaction mixture to terminate the color reaction, and the absorbance at 420 nm was measured. HPLC was performed by subjecting a sample solution containing amino acid to high-performance liquid chromatography using an ODS column (column, Wakosil II 5C18 (4.6 dia.×250 mm) (Wako Pure Chemical); eluent, CH3CN/50 mM KH2PO4. H3PO4 (pH 2.5)=2:8; detection, A280 nm; and flow rate, 1.0 ml/min). The retention times were 3.5 min for D-tryptophan and 9.8 min for N-acetyl-D-tryptophan. Using D-tryptophan as the assay standard, one unit (or U) of the enzyme was defined as the amount of the enzyme required to produce 1 μmol of D-tryptophan at 30° C. for 1 min.
Substrate specificity of the enzyme was expressed as the percentage of the specific activity compared with that for N-acetyl-D-methionine taken as 100%. N-chloroacetyl-D-phenylalanine, N-acetyl-D-valine, N-acetyl-D-phenylalanine, N-acetyl-D-tryptophan, N-acetyl-D-leucine, N-acetyl-L-valine, N-acetyl-L-phenylalanine, N-acetyl-L-tryptophan, and N-acetyl-L-leucine substrates were used for the comparison. The enzyme reaction was performed in 50 mM Tris-HCl (pH 7.5) containing 1 µl of the enzyme solution and 20 mM of each substrate (total volume 1.0 ml) at 30° C. for 20 min, and terminated by adding 0.5 ml of a TCA reaction terminating solution according to Tsai et al. (consisting of 110 mM trichloroacetic acid, 220 mM sodium acetate, and 330 mM acetic acid). The enzyme activity was assayed by the TNBS method as described in Example 4(2).

[5] = test system: Hypomyces subiculosus IFO 6892 strain; assay: D-amino acid production from N-acetyl-D-amino acid by washed fungal cells; format: cell-based; details: Hypomyces subiculosus IFO 6892 cells; 0.1% substrate, Tris-HCl pH 7.5, 30° C., 24 hours
Description: (§2) A platinum loopful of Hypomyces aurantius IFO 6847 strain, Hypomyces broomeanus IFO 9164 strain, Hypomyces rosellus IFO 6911 strain, Hypomyces chrysospermus IFO 6817 strain, Hypomyces sepulcralis IFO 9102 strain, Hypomyces subiculosus IFO 6892 strain, Hypomyces mycophilus ATCC 76474 or IFO 6785 strain, or Fusarium solani IFO 9974 or IFO 9975 strain was inoculated into 25 ml of YM medium (containing 0.3% yeast extract, 0.3% malt extract, 0.5% peptone, and 2.0% glucose, pH 6.0) in a 500-ml shouldered flask. The fungi were shake-cultured at 24° C. for 3 days. After culturing, a 5-ml aliquot of the culture medium was centrifuged in a refrigerated centrifuge to collect the fungal cells. The cells were washed with physiological saline solution (5 ml) and collected by centrifugation again. A reaction solution (containing 0.1% N-acetyl-D-amino acid shown in Table 1 below in Tris-HCl buffer, pH 7.5) was then added to the cells thus collected. The mixture was incubated in a 5-ml test tube with shaking at 30° C. for 24 hours.
(§3) D-Amino acid thus produced was determined by high-performance liquid chromatography (column, CROWNPAK CR (Daicel Chemical); column temperature, 26° C.; cooled in ice for only valine; mobile phase, HClO4 aqueous solution, pH 2.0; flow rate, 1 ml/min; and detection, 200 nm).

[6] = test system: Hypomyces rosellus IFO 6911 strain; assay: as above; format: cell-based; details: Hypomyces rosellus IFO 6911 cells; 0.1% substrate, Tris-HCl pH 7.5, 30° C., 24 hours
Description: as §2, §3

[7] = test system: Hypomyces chrysospermus IFO 6817 strain; assay: as above; format: cell-based; details: Hypomyces chrysospermus IFO 6817 cells; 0.1% substrate, Tris-HCl pH 7.5, 30° C., 24 hours
Description: as §2, §3

[8] = test system: Hypomyces mycophilus IFO 6785 strain; assay: as above; format: cell-based; details: Hypomyces mycophilus IFO 6785 cells; 0.1% substrate, Tris-HCl pH 7.5, 30° C., 24 hours
Description: as §2, §3

[9] = test system: Hypomyces mycophilus ATCC 76474; assay: as above; format: cell-based; details: Hypomyces mycophilus ATCC 76474 cells; 0.1% substrate, Tris-HCl pH 7.5, 30° C., 24 hours
Description: as §2, §3

Fusarium solani IFO 9974 = assay: as above; format: cell-based; details: Fusarium solani IFO 9974 cells; 0.1% substrate, Tris-HCl pH 7.5, 30° C., 24 hours
Description: as §2, §3

[10] = test system: Fusarium solani IFO 9975 strain; assay: as above; format: cell-based; details: Fusarium solani IFO 9975 cells; 0.1% substrate, Tris-HCl pH 7.5, 30° C., 24 hours
Description: as §2, §3

[11] = test system: Hypomyces sepulcralis IFO 9102 strain; assay: as above; format: cell-based; details: Hypomyces sepulcralis IFO 9102 cells; 0.1% substrate, Tris-HCl pH 7.5, 30° C., 24 hours
Description: as §2, §3

[12] = test system: Hypomyces aurantius IFO 6847 strain; assay: as above; format: cell-based; details: Hypomyces aurantius IFO 6847 cells; 0.1% substrate, Tris-HCl pH 7.5, 30° C., 24 hours
Description: as §2, §3

[13] = test system: Hypomyces broomeanus IFO 9164 strain; assay: as above; format: cell-based; details: Hypomyces broomeanus IFO 9164 cells; 0.1% substrate, Tris-HCl pH 7.5, 30° C., 24 hours
Description: as §2, §3

[14] = metal ion 1 mM, kept at 40° C. for 30 min, residual activity, no addition = 100
[15] = compound 1 mM, kept at 40° C. for 30 min, residual activity, no addition = 100

[Ca+2].[Cl-].[Cl-] [CaCl2]
Relative activity (%) (D-aminoacylase [1]; [14]): 104%

[Cl-].[Cl-].[Co+2] [CoCl2]
Relative activity (%) (D-aminoacylase [1]): 63.1%

[Co+2] [Co^2+]
effect on the enzyme (in words) (D-aminoacylase [1]): inhibited

O=S(=O)([O-])[O-].[Cu+2] [CuSO4]
Relative activity (%) (D-aminoacylase [1]; [15]): 20.4%

[Cu+2] [Cu^2+]
effect on the enzyme (in words) (D-aminoacylase [1]): inhibited

O=C(O)CN(CCN(CC(=O)O)CC(=O)O)CC(=O)O [EDTA]
Relative activity (%) (D-aminoacylase [1]; [15]): 96.0% | effect on the enzyme (in words) (D-aminoacylase [1]): not being inhibited

O=C(O)CN(CCOCCOCCN(CC(=O)O)CC(=O)O)CC(=O)O [EGTA]
Relative activity (%) (D-aminoacylase [1]; [15]): 90.9%

[Cl][Hg][Cl] [HgCl2]
Relative activity (%) (D-aminoacylase [1]): 13.4%

[Hg+2] [Hg^2+]
effect on the enzyme (in words) (D-aminoacylase [1]): inhibited

NO [Hydroxylamine]
Relative activity (%) (D-aminoacylase [1]; [15]): 96.2%

NC(=O)CI [Iodoacetamide]
Relative activity (%) (D-aminoacylase [1]): 185% | effect on the enzyme (in words) (D-aminoacylase [1]): activated

[Cl-].[K+] [KCl]
Relative activity (%) (D-aminoacylase [1]; [14]): 102%

[Cl-].[Cl-].[Mg+2] [MgCl2]
Relative activity (%) (D-aminoacylase [1]): 98.0%

[Cl][Mn][Cl] [MnCl2]
Relative activity (%) (D-aminoacylase [1]; [14]): 100%

CC(=O)N[C@H](CC(=O)O)C(=O)O [N-Acetyl-D-aspartic acid]
amount of D-amino acids produced from the corresponding N-acetyl-D-amino acids [2]: 0.66 mM | amount of D-amino acids produced from the corresponding N-acetyl-D-amino acids [3]: 1.10 mM

CC(=O)N[C@H](CC(N)=O)C(=O)O [N-acetyl-D-asparagine]
percentage of the specific activity compared with that for N-acetyl-D-methionine taken as 100%, D-enantiomer (D-aminoacylase [4]): 0%

CC[C@@H](C)[C@@H](NC(C)=O)C(=O)O [N-acetyl-D-isoleucine]
percentage of the specific activity compared with that for N-acetyl-D-methionine taken as 100%, D-enantiomer (D-aminoacylase [4]): 0%

CC(=O)N[C@H](CC(C)C)C(=O)O [N-acetyl-D-leucine]
percentage of the specific activity compared with that for N-acetyl-D-methionine taken as 100%, D-enantiomer (D-aminoacylase [4]): 77.5% | activity of the enzyme for the substrate (in words) (D-aminoacylase [4]): very active | amount of D-amino acids produced from the corresponding N-acetyl-D-amino acids [3]: 2.68 mM | D-amino acid produced from N-acetyl-D-amino acid [5]: 0.10 mg/mL | D-amino acid produced from N-acetyl-D-amino acid [6]: 0.3 mg/mL | D-amino acid produced from N-acetyl-D-amino acid [7]: 1.05 mg/mL | D-amino acid produced from N-acetyl-D-amino acid [8]: 0.55 mg/mL | D-amino acid produced from N-acetyl-D-amino acid [9]: 0.11 mg/mL | D-amino acid produced from N-acetyl-D-amino acid (Fusarium solani IFO 9974): 0.14 mg/mL | D-amino acid produced from N-acetyl-D-amino acid [10]: 0.21 mg/mL | D-amino acid produced from N-acetyl-D-amino acid [11]: 1.60 mg/mL | D-amino acid produced from N-acetyl-D-amino acid [12]: 0 mg/mL | D-amino acid produced from N-acetyl-D-amino acid [13]: 0 mg/mL

CC(=O)N1CCC[C@@H]1C(=O)O [N-acetyl-D-proline]
percentage of the specific activity compared with that for N-acetyl-D-methionine taken as 100%, D-enantiomer (D-aminoacylase [4]): 0%

CC(=O)N[C@@H](CC(C)C)C(=O)O [N-acetyl-L-leucine]
percentage of the specific activity compared with that for N-acetyl-D-methionine taken as 100%, L-enantiomer (D-aminoacylase [4]): 0% | activity of the enzyme for the substrate (in words) (D-aminoacylase [4]): inactive

CSCC[C@H](NC(C)=O)C(=O)O [N-acetyl-L-methionine]
percentage of the specific activity compared with that for N-acetyl-D-methionine taken as 100%, L-enantiomer (D-aminoacylase [4]): 0% | activity of the enzyme for the substrate (in words) (D-aminoacylase [4]): inactive

CC(=O)N[C@@H](Cc1ccccc1)C(=O)O [N-acetyl-L-phenylalanine]
percentage of the specific activity compared with that for N-acetyl-D-methionine taken as 100%, L-enantiomer (D-aminoacylase [4]): 0% | activity of the enzyme for the substrate (in words) (D-aminoacylase [4]): inactive

CC(=O)N[C@@H](Cc1c[nH]c2ccccc12)C(=O)O [N-acetyl-L-tryptophan]
percentage of the specific activity compared with that for N-acetyl-D-methionine taken as 100%, L-enantiomer (D-aminoacylase [4]): 0% | activity of the enzyme for the substrate (in words) (D-aminoacylase [4]): inactive

CC(=O)N[C@H](C(=O)O)C(C)C [N-acetyl-L-valine]
percentage of the specific activity compared with that for N-acetyl-D-methionine taken as 100%, L-enantiomer (D-aminoacylase [4]): 0% | activity of the enzyme for the substrate (in words) (D-aminoacylase [4]): inactive

O=C(N[C@H](Cc1ccccc1)C(=O)O)c1ccccc1 [N-benzoyl-D-phenylalanine]
percentage of the specific activity compared with that for N-acetyl-D-methionine taken as 100%, D-enantiomer (D-aminoacylase [4]): 0%

O=C(CCl)N[C@H](Cc1ccccc1)C(=O)O [N-chloroacetyl-D-phenylalanine]
percentage of the specific activity compared with that for N-acetyl-D-methionine taken as 100%, D-enantiomer (D-aminoacylase [4]): 708% | activity of the enzyme for the substrate (in words) (D-aminoacylase [4]): especially active

CCN1C(=O)C=CC1=O [N-ethylmaleimide]
Relative activity (%) (D-aminoacylase [1]; [15]): 15.2%

[Cl][Ni][Cl] [NiCl2]
Relative activity (%) (D-aminoacylase [1]): 57.7%

O=C(O)c1cc[c]([Hg][Cl])cc1 [P-Chloromercuribenzoic acid]
Relative activity (%) (D-aminoacylase [1]; compound 0.5 mM, kept at 40° C. for 30 min, residual activity, no addition = 100): 99.6%

O=S(=O)(F)Cc1ccccc1 [PMSF, phenyl methyl sulfonyl fluoride]
Relative activity (%) (D-aminoacylase [1]): 94.2%

[Cl-].[Cl-].[Zn+2] [ZnCl2]
Relative activity (%) (D-aminoacylase [1]): 26.2%

O=S(=O)([O-])[O-].[Zn+2] [ZnSO4]
Relative activity (%) (D-aminoacylase [1]; [15]): 11.6%

[Zn+2] [Zn^2+]
effect on the enzyme (in words) (D-aminoacylase [1]): inhibited

c1cnc2c(c1)ccc1cccnc12 [o-Phenanthroline]
Relative activity (%) (D-aminoacylase [1]; [15]): 78.8%

Penicillin
percentage of the specific activity compared with that for N-acetyl-D-methionine taken as 100%, D-enantiomer (D-aminoacylase [4]): 0%

Reference: patent US6905861B2, “D-aminoacylases, method for producing the same, and method for producing D-amino acids using the same” (Daicel Chemical Industries, Ltd., priority 1998, dated 2005)
